# Tests used:
# Experiment in all cases: relative viability (nuclei count vs DMSO), 5 days (fraction); higher = more cells survive
# [1] = compound: C(C(=O)C(=O)O)Br [Bromopyruvate] + C[C@@H](Oc1cc(-c2cnn(C3CCNCC3)c2)cnc1N)c1c(Cl)ccc(F)c1Cl [Crizotinib] (partner 1 µM)
# Summary of the method: (§1)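 Medians of duplicate plates are given as relative viability. That measure is the nuclei count in treated wells divided by the count in vehicle wells. Counts were taken on 4× images of lung cancer cell lines in 1536-well plates, 5 days after pin-tool dosing the day after seeding with one drug alone or a fixed anchor-drug dose plus five library-drug doses (not always all listed) in √10 steps.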
# [2] = compound: C(C(=O)C(=O)O)Br [Bromopyruvate] + CC(=O)Nc1cccc(-n2c(=O)n(C3CC3)c(=O)c3c(Nc4ccc(I)cc4F)n(C)c(=O)c(C)c32)c1 [Trametinib] (partner 0.02 µM)
# Summary of the method: as §1
# [3] = compound: CC(O)(CS(=O)(=O)c1ccc(F)cc1)C(=O)Nc1ccc(C#N)c(C(F)(F)F)c1 [Bicalutamide] + CC(C)C[C@H](NC(=O)[C@H](Cc1ccccc1)NC(=O)c1cnccn1)B(O)O [Bortezomib] (partner 0.002 µM)
# Summary of the method: as §1
# [4] = compound: CC(O)(CS(=O)(=O)c1ccc(F)cc1)C(=O)Nc1ccc(C#N)c(C(F)(F)F)c1 [Bicalutamide] + Nc1nc2[nH]cc(CCc3ccc(C(=O)N[C@@H](CCC(=O)O)C(=O)O)cc3)c2c(=O)[nH]1 [Pemetrexed] (partner 0.2 µM)
# Summary of the method: as §1
cell line,measurement,setting,value
UMC-11,relative viability,[1]; first compound 1 µM,0.727
same,relative viability,[1]; first compound 3.162 µM,0.655
same,relative viability,[1]; first compound 10 µM,0.505
same,relative viability,[1]; first compound 31.62 µM,0.509
same,relative viability,[1]; first compound 100 µM,0.52
same,relative viability,[2]; first compound 1 µM,0.746
same,relative viability,[2]; first compound 3.162 µM,0.604
same,relative viability,[2]; first compound 10 µM,0.622
same,relative viability,[2]; first compound 31.62 µM,0.732
same,relative viability,[2]; first compound 100 µM,0.748
same,relative viability,[3]; first compound 0.08 µM,0.758
same,relative viability,[3]; first compound 0.253 µM,0.67
same,relative viability,[3]; first compound 0.8 µM,0.762
same,relative viability,[3]; first compound 2.53 µM,0.596
same,relative viability,[4]; first compound 0.08 µM,0.83
same,relative viability,[4]; first compound 0.253 µM,0.732
same,relative viability,[4]; first compound 0.8 µM,0.829
same,relative viability,[4]; first compound 2.53 µM,0.756
